Here are results for 12 molecules from BindingDB's records for doi:10.1016/j.bmc.2010.04.075 (Chungnam National University, 2010).

The structures appear in SMILES notation. Where only a bound is given, the exact number is not on record here.

The test in a line: Inhibition of IL5-mediated proliferation of mouse Y16 cells by WST1 assay.
Consider `CCc1ccc(/C=C2\Oc3cccc(OCC4CCCCC4)c3C2=O)cc1` [(Z)-4-(cyclohexylmethoxy)-2-(4-ethylbenzylidene)benzofuran-3(2H)-one], for which the IC50 is more than 30 µM. The same measure for `COCOc1ccc(-c2coc3cccc(OCC4CCCCC4)c3c2=O)cc1` [5-(Cyclohexylmethoxy)-3-[4-(methoxymethoxy)phenyl]-4H-chromen-4-one]: more than 30 µM; for `COc1ccc(-c2coc3cccc(OCC4CCCCC4)c3c2=O)cc1OC` [5-(Cyclohexylmethoxy)-3-(3,4-dimethoxyphenyl)-4Hchromen-4-one]: more than 30 µM; for `O=C1/C(=C/c2ccccc2)Oc2cccc(OCC3CCCCC3)c21` [(Z)-2-(Benzylidene)-4-(cyclohexylmethoxy)benzofuran-3(2H)-one]: more than 30 µM. The figure for `COc1cc(-c2coc3cccc(OCC4CCCCC4)c3c2=O)ccc1OCc1ccccc1` [3-(4-(Benzyloxy)-3-methoxyphenyl)-5-(cyclohexylmethoxy)-4H-chromen-4-one] is 17.4 µM; for `O=Cc1ccc(/C=C2\Oc3cccc(OCC4CCCCC4)c3C2=O)cc1` [(Z)-4-{[4-(Cyclohexylmethoxy)-3-oxobenzofuran-2(3H)-ylidene]methyl}benzaldehyde] it is more than 30 µM. The figure for `COc1ccc(-c2coc3cccc(OCC4CCCCC4)c3c2=O)cc1` [5-(Cyclohexylmethoxy)-3-(4-methoxyphenyl)-4H-chromen-4-one] is more than 30 µM.

In turn, `O=C1/C(=C/c2ccc([N+](=O)[O-])cc2)Oc2cccc(OCC3CCCCC3)c21` [(Z)-4-(Cyclohexylmethoxy)-2-(4-nitrobenzylidene)benzofuran-3(2H)-one] returned an IC50 of more than 30 µM. The same measure for `CCc1ccc(-c2coc3cccc(OCC4CCCCC4)c3c2=O)cc1` [5-(Cyclohexylmethoxy)-3-(4-ethylphenyl)-4H-chromen-4-one]: more than 30 µM; for `O=C1/C(=C/c2ccc(Cl)cc2)Oc2cccc(OCC3CCCCC3)c21` [(Z)-2-(4-Chlorobenzylidene)-4-(cyclohexylmethoxy)benzofuran-3(2H)-one]: more than 30 µM; for `COC(=O)c1ccc(/C=C2\Oc3cccc(OCC4CCCCC4)c3C2=O)cc1` [Methyl(Z)-4-[4-(cyclohexylmethoxy)-3-oxobenzofuran-2(3H)-ylidene]methylbenzoate]: more than 30 µM. `COc1cc(-c2coc3cccc(OCC4CCCCC4)c3c2=O)ccc1O` [5-(Cyclohexylmethoxy)-3-(4-hydroxy-3-methoxyphenyl)-4H-chromen-4-one] registered an IC50 of more than 30 µM.
